Data on two compounds can be found in US20020028807A1, “Non-nucleoside reverse transcriptase inhibitors” (priority 2000, published 2002).

pEC50, pIC50: −log10 of the molar value.

As a reminder, the pIC50 is −log10 of the IC50, conventionally taken in molar units.

One test deals with T1, HIV-1 RT wild-type (WT) (Human immunodeficiency virus type 1 group M subtype B, UniProt P03366).
T1 construct: an HIV RT clone pKRT2 containing only the RT p66 gene regulated by the lac operon/trc promoter; made in house; host or cells: E. coli JM109, vector pKK233-2
In words: Reverse transcriptase (RT) assay, wild-type enzyme. The test is classed as biochemical. The text has this:
(§1) Among the enzymes for which Human Immunodeficiency Virus (HIV-1) encodes is a reverse transcriptase (1), so-named because it transcribes a DNA copy from an RNA template. This activity can be quantitatively measured in a cell-free enzyme assay and is based upon the observation that reverse transcriptase is able to use a synthetic template poly r(C) primed with a biotinylated oligo d(G) to transcribe a radio-labelled DNA strand utilising 3H-dGTP as a substrate. The assay described below utilises the wild-type enzyme (which is the predominant form of the enzyme observed in patients infected with HIV-1) and can also be used with mutant RT enzymes (for example, Y181C, prepared by site-directed mutagenesis in which the tyrosine residue at codon 181 has been replaced by a cysteine residue) in analogous assay conditions. This assay allows compounds to be evaluated for their effectiveness at inhibiting the mutant enzymes.
(§2) Some HIV-1 IIIB clone BH10 RT mutants were provided by Dr. C.-K. Shih (Boehringer Ingelheim Pharmaceutials Inc., U.S.A.) in the vector pKK233-2 (Pharmacia). Briefly an HIV RT clone pKRT2 containing only the RT p66 gene regulated by the lac operon/trc promoter was obtained from Dr. W. Summers (Yale University) (2). A variety of specific amino acid substitutions were introduced into the wild-type RT gene by site-directed mutagenesis. RT clones were subcloned into the pKK233-2 bacterial expression vector. Clones provided included wild-type, Val106Ala, Tyr181Cys, Tyr188Cys, Tyr188Leu, Gly190Ala and Pro236Leu. Others were made in-house by site-directed mutagenesis of the pKK233-2 RT clones including Lys103Asn, Lys103Asn/Tyr181Cys, Lys103Asn/Leu100Ile, Lys103Asn/Pro225His, and Lys103Asn/Val108Ile.
(§3) Purification of recombinant reverse transcriptase was performed using a combination of methods previously described (3). A single colony from a fresh plate of transformed JM109 cells was used to initiate growth of a pre-culture grown o/n at 37° C. Two liters of growth medium were inoculated with this pre-culture. At OD600˜1.5 (5-6 h at 37° C.), RT gene expression was induced with IPTG (1 mM final), and the fermentation was continued for a few more hours at 37° C. After centrifugation, supernatants were discarded while cell pellets were pooled and stored at −80° C. until purification. Cells were thawed at 4° C. overnight and suspended in lysis buffer (MES 50 mM pH 6, EDTA 1 mM, 10% v/v glyerol, 0.02% w/v OBG, 0.02% w/v sodium azide). Lysozyme was added and the mixture was incubated on ice for 40 minutes. After homogenization using a bounce in presence of lysozyme and sonication, the cells were centrifuged for 30 minutes. Supernatant (S1) was saved and stored at 4° C. The centrifuged pellet was resuspended in extraction buffer (MES 50 mM pH 6, KPO4 50 mM pH 6, KCl 100 mM, 10% v/v glycerol, 0.02% w/v OBG, 0.02% w/v sodium axide) and stirred for 30 minutes at 4° C. This second mixture was centrifuged again and the supernatant (S2) was saved. The above procedure was repeated 2 more times saving supernatants S3 and S4 and one last extraction was performed overnight (S5). Polymin P (0.005% final) was added to the combined supernatants to remove nucleic acids. This solution was stirred for 75 minutes at 4° C. and centrifuged for 1 h. The supernatant (SS1) was precipitated on ice with 20% w/v ammonium sulfate and stirred for 1 h at 4° C. The mixture was then centrifuged and the resulting supernatant (SS2) was precipitated with additional 40% w/v ammonium sulfate (60% total), stirred for 1 h and centrifuged again. The final pellet (P1) was stored overnight at 4° C. before undergoing purification the following day. All steps of the purification were performed at 4° C. unless otherwise stated.
(§4) Pellet (P1) was resuspended into MES 50 mM pH 6, KPO4 10 mM pH 6, KCl 100 mM, 10% v/v glycerol, 0.02% w/v OBG, 0.02% w/v sodium azide. The suspension was dialysis against the same buffer overnight using 12-14 kD MWCO dialysis tubing. […]

The target of a further test is T2, HIV-1 RT K103N (Human immunodeficiency virus type 1 group M subtype B, UniProt P03366, K702N).
T2 construct: an HIV RT clone pKRT2 containing only the RT p66 gene regulated by the lac operon/trc promoter; made in house; host or cells: E. coli JM109, vector pKK233-2
As to the kind of experiment: Reverse transcriptase (RT) assay, K103N mutant. Format: biochemical.
From the text: as §1, §2, §3, §4

Another test has as its target T3, HIV-1 RT Y181C (Human immunodeficiency virus type 1 group M subtype B, UniProt P03366, Y780C).
T3 construct: an HIV RT clone pKRT2 containing only the RT p66 gene regulated by the lac operon/trc promoter; made in house; host or cells: E. coli JM109, vector pKK233-2
As to the kind of experiment: Reverse transcriptase (RT) assay, Y181C mutant. The test is classed as biochemical.
From the text: as §1, §2, §3, §4

The target in another test is T4, HIV-1 RT V106A (Human immunodeficiency virus type 1 group M subtype B, UniProt P03366, V705A).
T4 construct: an HIV RT clone pKRT2 containing only the RT p66 gene regulated by the lac operon/trc promoter; made in house; host or cells: E. coli JM109, vector pKK233-2
As to the kind of experiment: Reverse transcriptase (RT) assay, V106A mutant. The test is classed as biochemical.
From the text: as §1, §2, §3, §4

Another test concerns the target T5, HIV-1 RT P23L (Human immunodeficiency virus type 1 group M subtype B, UniProt P03366, P835L).
T5 construct: an HIV RT clone pKRT2 containing only the RT p66 gene regulated by the lac operon/trc promoter; made in house; host or cells: E. coli JM109, vector pKK233-2
In words: Reverse transcriptase (RT) assay, P23L mutant. The test is classed as biochemical.
From the text: as §1, §2
Purification of recombinant reverse transcriptase was performed using a combination of methods previously described (3). A single colony from a fresh plate of transformed JM109 cells was used to initiate growth of a pre-culture grown o/n at 37° C. Two liters of growth medium were inoculated with this pre-culture. At OD600˜1.5 (5-6 h at 37° C.), RT gene expression was induced with IPTG (1 mM final), and the fermentation was continued for a few more hours at 37° C. After centrifugation, supernatants were discarded while cell pellets were pooled and stored at −80° C. until purification. Cells were thawed at 4° C. overnight and suspended in lysis buffer (MES 50 mM pH 6, EDTA 1 mM, 10% v/v glyerol, 0.02% w/v OBG, 0.02% w/v sodium azide). Lysozyme was added and the mixture was incubated on ice for 40 minutes. After homogenization using a bounce in presence of lysozyme and sonication, the cells were centrifuged for 30 minutes. Supernatant (S1) was saved and stored at 4° C. […]

The target in the next test is T6, HIV-1 RT Y188L (Human immunodeficiency virus type 1 group M subtype B, UniProt P03366, Y787L).
T6 construct: an HIV RT clone pKRT2 containing only the RT p66 gene regulated by the lac operon/trc promoter; made in house; host or cells: E. coli JM109, vector pKK233-2
As to the kind of experiment: Reverse transcriptase (RT) assay, Y188L mutant. The test is classed as biochemical.
From the text: as §1, §2, §3, §4

For a further test, the target named is T7, HIV-1 RT G190A (Human immunodeficiency virus type 1 group M subtype B, UniProt P03366, G789A).
T7 construct: an HIV RT clone pKRT2 containing only the RT p66 gene regulated by the lac operon/trc promoter; made in house; host or cells: E. coli JM109, vector pKK233-2
As to the kind of experiment: Reverse transcriptase (RT) assay, G190A mutant. The test is classed as biochemical.
From the text: as §1, §2, §3, §4

A further test concerns the target T8, HIV-1 RT K103N/Y181C (Human immunodeficiency virus type 1 group M subtype B, UniProt P03366, K702N/Y780C).
T8 construct: an HIV RT clone pKRT2 containing only the RT p66 gene regulated by the lac operon/trc promoter; made in house; host or cells: E. coli JM109, vector pKK233-2
In words: Reverse transcriptase (RT) assay, K103N/Y181C mutant. The test is classed as biochemical.
From the text: as §1, §2, §3, §4

The next test has as its target T9, HIV-1 RT K103N/P225H (Human immunodeficiency virus type 1 group M subtype B, UniProt P03366, K702N/P824H).
T9 construct: an HIV RT clone pKRT2 containing only the RT p66 gene regulated by the lac operon/trc promoter; made in house; host or cells: E. coli JM109, vector pKK233-2
In words: Reverse transcriptase (RT) assay, K103N/P225H mutant. Format: biochemical.
From the text: as §1, §2, §3, §4

The next test has as its target T10, HIV-1 RT Y188C (Human immunodeficiency virus type 1 group M subtype B, UniProt P03366, Y787C).
T10 construct: an HIV RT clone pKRT2 containing only the RT p66 gene regulated by the lac operon/trc promoter; made in house; host or cells: E. coli JM109, vector pKK233-2
In words: Reverse transcriptase (RT) assay, Y188C mutant. Format: biochemical.
From the text: as §1, §2, §3, §4

A further test has as its target T11, HIV-1 RT K103N/V108I (Human immunodeficiency virus type 1 group M subtype B, UniProt P03366, K702N/V707I).
T11 construct: an HIV RT clone pKRT2 containing only the RT p66 gene regulated by the lac operon/trc promoter; made in house; host or cells: E. coli JM109, vector pKK233-2
As to the kind of experiment: Reverse transcriptase (RT) assay, K103N/V108I mutant. Format: biochemical.
From the text: as §1, §2, §3, §4

Another test deals with T12, HIV-1 RT K103N/L100I (Human immunodeficiency virus type 1 group M subtype B, UniProt P03366, K702N/L699I).
T12 construct: an HIV RT clone pKRT2 containing only the RT p66 gene regulated by the lac operon/trc promoter; made in house; host or cells: E. coli JM109, vector pKK233-2
In words: Reverse transcriptase (RT) assay, K103N/L100I mutant. The test is classed as biochemical.
From the text: as §1, §2, §3, §4

In test [1] the test system is HIV coding for wild-type reverse transcriptase (WT RT). In words: ELISA (p24) assay of HIV replication in C8166 cell culture, wild-type RT virus. The test is classed as cell-based, HIV-1. As to conditions: Human immunodeficiency virus 1, C8166, 72 h, read-out: EC50 WT RT. The procedure:
(§5) Compounds of the invention were tested for their ability to inhibit HIV replication in cell culture in a 96-well plate assay. Complete RPMI 1640, consisting of RPMI 1640+10% fetal bovine serum, 10 μg/ml gentamycin and 10 μM β-mercaptoethanol was used for dilution of the compound as well as cell growth medium. The T lymphocyte cell line C8166 was infected at a multiplicity of infection of 0.001 with viruses coding for wild-type and mutant reverse transcriptase. Cells were then incubated for three days in the presence of serial dilutions of the compounds of the invention. The supernatant was pooled from eight replica wells and the concentration of extracellular p24 was determined using a commercially available HIV-1 p24 antigen assay kit (Beckman-Coulter®). The level of inhibition (% inhibition) was calculated with the following equation: [formula]
Background: An ELISA detects its analyte on a solid surface through an enzyme-linked reagent.

The test system of test [2] is HIV coding for mutant reverse transcriptase V106A. In words: ELISA (p24) assay of HIV replication in C8166 cell culture, V106A virus. The test is classed as cell-based, HIV-1. As to conditions: Human immunodeficiency virus 1, C8166, 72 h, read-out: EC50 V106A. As to the method:
as §5

The test system of test [3] is HIV coding for mutant reverse transcriptase Y188L. As to the kind of experiment: ELISA (p24) assay of HIV replication in C8166 cell culture, Y188L virus. Format: cell-based, HIV-1. As to conditions: Human immunodeficiency virus 1, C8166, 72 h, read-out: EC50 Y188L. As to the method:
as §5

The test system of test [4] is HIV coding for mutant reverse transcriptase K103N/Y181C. As to the kind of experiment: ELISA (p24) assay of HIV replication in C8166 cell culture, K103N/Y181C virus. The test is classed as cell-based, HIV-1. As to conditions: Human immunodeficiency virus 1, C8166, 72 h, read-out: EC50 K103N/Y181C. As to the method:
as §5

Turning to `CCN1c2ncc(CCOc3ccnc4ccccc34)cc2C(=O)N(C)c2ccc(Cl)nc21` [compound 2, 2-Chloro-5,11-dihydro-11-ethyl-5-methyl-8-{2-(4-quinolinyloxy)ethyl}-6H-dipyrido[3,2-b:2′,3′-e][1,4]diazepin-6-one], the pIC50 on HIV-1 RT wild-type (WT) is 8.26; on HIV-1 RT K103N, 7.55; at HIV-1 RT Y181C, 7.60; on HIV-1 RT V106A it was 6.83; on HIV-1 RT P23L, 7.30; at HIV-1 RT Y188L it was 6.59. In addition, the pIC50 was 7.84 on HIV-1 RT G190A; 7.61 on HIV-1 RT K103N/Y181C; 7.57 on HIV-1 RT K103N/P225H; 8.15 on HIV-1 RT Y188C; 7.51 on HIV-1 RT K103N/V108I; 7.34 at HIV-1 RT K103N/L100I. In [1], the pEC50 is 8.66.
Take `CCN1c2ncc(CCOc3cc[n+]([O-])c4ccccc34)cc2C(=O)Nc2c(C)cc(F)nc21` [compound 9, 5,11-Dihydro-11-ethyl-2-fluoro-4-methyl-8-{2-{(1-oxido-4-quinolinyl)-oxy}ethyl}-6H-dipyrido[3,2-b:2′,3′-e][1,4]diazepin-6-one]: the pIC50 on HIV-1 RT wild-type (WT) was 7.85; at HIV-1 RT K103N it was 7.64; on HIV-1 RT Y181C, 7.37; on HIV-1 RT V106A it was 7.01; on HIV-1 RT Y188L it was 5.47; at HIV-1 RT K103N/Y181C, 6.76. The negative-log IC50 (pIC50) on HIV-1 RT K103N/P225H was 7.60; at HIV-1 RT K103N/V108I, 7.24; on HIV-1 RT K103N/L100I, 7.06. The pEC50 in test [1] is 9.04; in test [2] it was 8.30; in test [3], 6.93; in test [4], 8.12.
